Converted amounts (≈) assume the structure as drawn.
Key:
[1] = test system: MRSA 33; test: MIC, agar incorporation method; details: agar incorporation
[2] = test system: S. pneum AB 34; test: MIC, agar incorporation method; details: agar incorporation
[3] = test system: Strep. pyog. ATCC 19615; test: MIC, agar incorporation method; details: agar incorporation
[4] = test system: MRSA 15187; test: MIC, agar incorporation method; details: agar incorporation
[5] = test system: S. aureus; test: Summary of in vitro activity (MIC); details: S. aureus
[6] = test system: VRE 6A (Ent. faecium 6A); test: MIC, agar incorporation method; details: agar incorporation
[7] = test system: G +ve bacteria; test: Summary of in vitro activity (MIC); details: for MIC50 / MIC90: G +ve, Number 49; for Geometric Mean of in vitro activity (MIC): Gram + ve
[8] = test system: MRSA 562; test: MIC, agar incorporation method; details: agar incorporation; Table 1
[9] = test system: Ent. faecalis ATCC 29212; test: MIC, agar incorporation method; details: agar incorporation
[10] = test system: S. aureus ATCC 25923; test: MIC, agar incorporation method; details: agar incorporation
[11] = test system: S. pneumoniae; test: Summary of in vitro activity (MIC); details: S. pneumoniae; for MIC50 / MIC90: Number 19
[12] = test system: E. faecalis; test: Summary of in vitro activity (MIC); details: E. faecalis
[13] = test system: Strep. pne. ATCC 6303; test: MIC, agar incorporation method; details: agar incorporation

Compound	MIC MRSA 33 [1]	MIC S. pneum AB 34 [2]	MIC S. pyogenes 19615 [3]	MIC MRSA 15187 [4]	MIC VRE 6A [6]	MIC MRSA 562 [8]	MIC E. faecalis 29212 [9]	MIC S. aureus 25923 [10]	MIC S. pneum 6303 [13]	also measured
CC(=O)NC[C@H]1CN(c2ccc(N3CC4C(CN(C)Cc5ccc([N+](=O)[O-])o5)C4C3)c(F)c2)C(=O)O1 (stereo partly drawn) [Compound No. 40, (S)-N-[[3-[3-Fluoro[4-[3-(1α,5α,6α)-6-[N-(5-nitro-2-furylmethyl)-N-methyl]amino-methyl]-3-azabicyclo-[3.1.0]hexane]phenyl]-2-oxo-5-oxazolidinyl]methyl]acetamide]	2 µg/mL (≈ 3.99 µM)	2 µg/mL (≈ 3.99 µM)	0.125 µg/mL (≈ 0.249 µM)	2 µg/mL (≈ 3.99 µM)	4 µg/mL (≈ 7.98 µM)	1 µg/mL (≈ 1.99 µM)	2 µg/mL (≈ 3.99 µM)	2 µg/mL (≈ 3.99 µM)	–	Geometric Mean of in vitro activity (MIC) [5]: 1.83 µg/mL; MIC50 ([5]; Number 8): 2 µg/mL (≈ 3.99 µM); MIC90 ([5]; Number 8): 4 µg/mL (≈ 7.98 µM); MIC50 [7]: 1 µg/mL (≈ 1.99 µM); MIC90 [7]: 2 µg/mL (≈ 3.99 µM); Geometric Mean of in vitro activity (MIC) [7]: 0.93 µg/mL; Geometric Mean of in vitro activity (MIC) [11]: 0.71 µg/mL; MIC50 [11]: 1 µg/mL (≈ 1.99 µM); MIC90 [11]: 1 µg/mL (≈ 1.99 µM); Geometric Mean of in vitro activity (MIC) [12]: 2.38 µg/mL; MIC50 ([12]; Number 7): 2 µg/mL (≈ 3.99 µM); MIC90 ([12]; Number 7): 4 µg/mL (≈ 7.98 µM)
CC(=O)NC[C@H]1CN(c2ccc(N3CCN(Cc4cccn4C)CC3)c(F)c2)C(=O)O1 [Compound No. 22, (S)-N[[3-[3-Fluoro-4-[N-1[4-{2-pyrrole(1-methyl)methyl}]piperazinyl]phenyl]2-oxo-5-oxazolidinyl]methyl]acetamide]	8 µg/mL (≈ 18.6 µM)	1 µg/mL (≈ 2.33 µM)	1 µg/mL (≈ 2.33 µM)	8 µg/mL (≈ 18.6 µM)	8 µg/mL (≈ 18.6 µM)	4 µg/mL (≈ 9.31 µM)	8 µg/mL (≈ 18.6 µM)	2 µg/mL (≈ 4.66 µM)	1 µg/mL (≈ 2.33 µM)	–
CC(=O)NC[C@H]1CN(c2ccc(N3C[C@@H]4[C@@H](CN(C)C(=O)Cc5cccs5)[C@@H]4C3)c(F)c2)C(=O)O1 [Compound No. 38, (S)-N-[[3-[3-Fluoro[4-[3-(1α,5α,6α)-6-[N-(2-thiopheneacetyl)-N-methyl]amino-methyl]-3-azabicyclo-[3.1.0]hexane]phenyl]-2-oxo-5-oxazolidinyl]methyl]acetamide]	4 µg/mL (≈ 7.99 µM)	1 µg/mL (≈ 2 µM)	1 µg/mL (≈ 2 µM)	4 µg/mL (≈ 7.99 µM)	4 µg/mL (≈ 7.99 µM)	4 µg/mL (≈ 7.99 µM)	4 µg/mL (≈ 7.99 µM)	4 µg/mL (≈ 7.99 µM)	1 µg/mL (≈ 2 µM)	–
CC(=O)NC[C@H]1CN(c2ccc(N3CC4C(CN(C)Cc5ccc([N+](=O)[O-])s5)C4C3)c(F)c2)C(=O)O1 (stereo partly drawn) [Compound No. 39, (S)-N-[[3-[3-Fluoro[4-[3-(1α,5α,6α)-6-[N-(5-nitro-2-thienylmethyl)-N-methyl]-amino-methyl]-3-azabicyclo-[3.1.0]hexane]phenyl]-2-oxo-5-oxazolidinyl]methyl]acetamide]	4 µg/mL (≈ 7.73 µM)	0.5 µg/mL (≈ 0.966 µM)	0.5 µg/mL (≈ 0.966 µM)	8 µg/mL (≈ 15.5 µM)	8 µg/mL (≈ 15.5 µM)	8 µg/mL (≈ 15.5 µM)	2 µg/mL (≈ 3.86 µM)	8 µg/mL (≈ 15.5 µM)	0.5 µg/mL (≈ 0.966 µM)	–
CC1(C)S[C@@H]2[C@H](NC(=O)Cc3ccccc3)C(=O)N2[C@H]1C(=O)O [Penicillin G, reference compound]	–	–	–	–	–	–	–	–	–	MIC50 [7]: 4 µg/mL (≈ 12 µM); MIC90 [7]: 32 µg/mL (≈ 95.7 µM); Geometric Mean of in vitro activity (MIC) [7]: 0.76 µg/mL; Geometric Mean of in vitro activity (MIC) [11]: 2.16 µg/mL; MIC50 [11]: 4 µg/mL (≈ 12 µM); MIC90 [11]: 32 µg/mL (≈ 95.7 µM)

Further lines, with some results ahead:

MIC MRSA 33 [1]	MIC S. pneum AB 34 [2]	MIC S. pyogenes 19615 [3]	MIC MRSA 15187 [4]	MIC VRE 6A [6]	MIC MRSA 562 [8]	MIC E. faecalis 29212 [9]	MIC S. aureus 25923 [10]	MIC S. pneum 6303 [13]	Compound	also measured
2 µg/mL (≈ 3.91 µM)	0.5 µg/mL (≈ 0.978 µM)	1 µg/mL (≈ 1.96 µM)	2 µg/mL (≈ 3.91 µM)	4 µg/mL (≈ 7.82 µM)	2 µg/mL (≈ 3.91 µM)	2 µg/mL (≈ 3.91 µM)	2 µg/mL (≈ 3.91 µM)	2 µg/mL (≈ 3.91 µM)	CC(=O)NC[C@H]1CN(c2ccc(N3CCN(Cc4ccc(Br)s4)CC3)c(F)c2)C(=O)O1 [Compound No. 27]	–
2 µg/mL (≈ 4.36 µM)	8 µg/mL (≈ 17.4 µM)	8 µg/mL (≈ 17.4 µM)	2 µg/mL (≈ 4.36 µM)	8 µg/mL (≈ 17.4 µM)	1 µg/mL (≈ 2.18 µM)	8 µg/mL (≈ 17.4 µM)	2 µg/mL (≈ 4.36 µM)	8 µg/mL (≈ 17.4 µM)	CC(=O)NC[C@H]1CN(c2ccc(N3CCN(Cc4ccc(C=NN)o4)CC3)c(F)c2)C(=O)O1 [Compound No. 62, (S)-N-[[3-[3-Fluoro-4[N-1-[4-{2-furyl-(5-hydrazone)-methyl}]-piperazinyl]-phenyl]-2-oxo-5-oxazolidinyl]-methyl]acetamide]	–
2 µg/mL (≈ 4.5 µM)	8 µg/mL (≈ 18 µM)	8 µg/mL (≈ 18 µM)	2 µg/mL (≈ 4.5 µM)	8 µg/mL (≈ 18 µM)	1 µg/mL (≈ 2.25 µM)	8 µg/mL (≈ 18 µM)	1 µg/mL (≈ 2.25 µM)	4 µg/mL (≈ 9 µM)	CC(=O)NC[C@H]1CN(c2ccc(N3CCN(Cc4ccc(C=O)o4)CC3)c(F)c2)C(=O)O1 [Compound No. 02, (S)-N-[[3-[3-Fluoro-4-[N-1[4-{2-furyl(5-formyl)methyl}]piperazinyl]phenyl]-2-oxo-5-oxazolidinyl]methyl]acetamide]	–
8 µg/mL (≈ 18.5 µM)	8 µg/mL (≈ 18.5 µM)	4 µg/mL (≈ 9.25 µM)	8 µg/mL (≈ 18.5 µM)	8 µg/mL (≈ 18.5 µM)	8 µg/mL (≈ 18.5 µM)	8 µg/mL (≈ 18.5 µM)	8 µg/mL (≈ 18.5 µM)	8 µg/mL (≈ 18.5 µM)	CC(=O)NC[C@H]1CN(c2ccc(N3CCN(Cc4cccs4)CC3)c(F)c2)C(=O)O1 [Compound No. 12, (S)-N-[[3-[3-Fluoro-4-[N-1[4-(2-thienylmethyl)]piperazinyl]phenyl]-2-oxo-5-oxazolidinyl]methyl]acetamide]	–
1 µg/mL (≈ 1.99 µM)	4 µg/mL (≈ 7.94 µM)	2 µg/mL (≈ 3.97 µM)	1 µg/mL (≈ 1.99 µM)	1 µg/mL (≈ 1.99 µM)	1 µg/mL (≈ 1.99 µM)	1 µg/mL (≈ 1.99 µM)	1 µg/mL (≈ 1.99 µM)	4 µg/mL (≈ 7.94 µM)	CC(=O)NC[C@H]1CN(c2ccc(N3C[C@@H]4[C@H](C3)[C@H]4N(C)Cc3ccc([N+](=O)[O-])s3)c(F)c2)C(=O)O1 [Compound No. 34, (S)-N-[[3-[3-Fluoro[4-[3-(1α,5α,6α)-6-[N-(5-nitro-2-thienylmethyl)-N-methyl]-amino]-3-azabicyclo-[3.1.0]hexane]phenyl]-2-oxo-5-oxazolidinyl]methyl]acetamide]	–

— US20040254162A1, “Oxazolidinone derivatives as antimicrobials” (priority 2001, published 2004)
